Each structure is given as a SMILES string.

The assay addresses human IDO1 (Homo sapiens, UniProt P14902). The assay can be described thus: Assessment of human IDO-1 inhibitory activity in Hela cells (Interferon-gamma stimulated HeLa cells, Ehrlich reagent, absorbance 490 nm). The format is cell-based. Set-up: endogenous in cells; host or cells: HeLa cells stimulated with interferon-gamma. To be noted: Hela Human IDO-1 cellular assay. The method in brief: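 IDO activity induced by 18 h IFN-γ (human 10 ng/ml or murine 5 ng/ml, final) after 1 h compound pre-treatment of HeLa cells at 37 °C. Supernatant kynurenine detected via Ehrlich reagent absorbance at 490 nm following 3% TCA at 50 °C; IC50 set against no-IFN-γ and untreated-stimulated controls.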

Sequence of human IDO1 (P14902 whole entry): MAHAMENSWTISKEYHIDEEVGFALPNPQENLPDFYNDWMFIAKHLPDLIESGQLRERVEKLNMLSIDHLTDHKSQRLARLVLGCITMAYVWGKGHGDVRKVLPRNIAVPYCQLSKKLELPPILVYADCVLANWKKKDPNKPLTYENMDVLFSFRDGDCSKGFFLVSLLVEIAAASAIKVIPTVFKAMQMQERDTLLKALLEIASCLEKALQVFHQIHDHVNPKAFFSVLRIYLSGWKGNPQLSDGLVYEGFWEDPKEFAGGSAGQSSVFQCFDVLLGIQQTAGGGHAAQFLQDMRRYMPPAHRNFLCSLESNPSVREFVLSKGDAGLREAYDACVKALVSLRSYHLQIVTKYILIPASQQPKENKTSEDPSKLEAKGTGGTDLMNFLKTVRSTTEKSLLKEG

Broadly, the IC50 is the midpoint of a concentration-inhibition curve. Lower therefore signals greater potency. With `CCOc1cnc(Nc2cc(C(C)CC(=O)O)ccc2N(CC)C2CCOCC2)cn1` (single isomer, unassigned) [Example 630, 3-(3-((5-ethoxypyrazin-2-yl)amino)-4-(ethyl (tetrahydro-2H-pyran-4-yl)amino)phenyl)butanoic acid], the IC50 is under 50 nM. To `CCOc1ccc(Nc2cc(C(C)CC(=O)O)ccc2N(CC)C2CCOCC2)nn1` (single isomer, unassigned) [Example 631, 3-(3-((6-ethoxypyridazin-3-yl)amino)-4-(ethyl (tetrahydro-2H-pyran-4-yl)amino)phenyl)butanoic acid] belongs under 50 nM; to `CCOc1ncc(Nc2cc(C(C)CC(=O)O)ccc2N(CC)C2CCOCC2)cn1` (single isomer, unassigned) [Example 632, 3-(3-((2-ethoxypyrimidin-5-yl)amino)-4-(ethyl (tetrahydro-2H-pyran-4-yl)amino)phenyl)butanoic acid], under 50 nM; to `CCC(CC(=O)O)c1ccc(N2CCN(C(=O)OC)CC2)c(Nc2ccc(C#N)cc2)c1` (single isomer, unassigned) [Example 668 Enantiomer 1, 3-(3-((4-Cyanophenyl)amino)-4-(4-(methoxycarbonyl)piperazin-1-yl)phenyl)pentanoic acid], over 50 nM. `CCOc1ncc(Nc2cc(C(CC)CC(=O)O)ccc2N2CCN(C(=O)OC)CC2)cn1` (single isomer, unassigned) [Example 669, 3-(3-((2-Ethoxypyrimidin-5-yl)amino)-4-(4-(methoxycarbonyl)piperazin-1-yl)phenyl)pentanoic acid] yielded an IC50 of over 50 nM. As to `CCC(CC(=O)O)c1ccc(N2CCNCC2)c(Nc2ccc(C#N)cc2)c1` (single isomer, unassigned) [Example 671 Enantiomer 1, 3-(3-((4-Cyanophenyl)amino)-4-(piperazin-1-yl)phenyl)pentanoic acid], the IC50 is over 50 nM. The result for `CCOc1ncc(Nc2cc(C(CC)CC(=O)O)ccc2N2CCNCC2)cn1` (single isomer, unassigned) [Example 672, 3-(3-((2-Ethoxypyrimidin-5-yl)amino)-4-(piperazin-1-yl)phenyl)pentanoic acid] reads over 50 nM; that for `CCC(CC(=O)O)c1ccc(N2CCN(C(=O)OC(C)(C)C)CC2)c(Nc2ccc(C#N)cc2)c1` (single isomer, unassigned) [Example 674 Enantiomer 1, 3-(4-(4-(tert-Butoxycarbonyl)piperazin-1-yl)-3-((4-cyanophenyl)amino)phenyl)pentanoic acid], under 50 nM; that for `CCC(CC(=O)O)c1ccc(N2CCN(C(=O)OC(C)(C)C)CC2)c(Nc2ccc(C#N)cc2)c1` (single isomer, unassigned) [Example 674 Enantiomer 2, 3-(4-(4-(tert-Butoxycarbonyl)piperazin-1-yl)-3-((4-cyanophenyl)amino)phenyl)pentanoic acid], over 50 nM. The result for `CCOc1ncc(Nc2cc(C(CC)CC(=O)O)ccc2N2CCN(C(=O)OC(C)(C)C)CC2)cn1` (single isomer, unassigned) [Example 675, 3-(4-(4-(tert-Butoxycarbonyl)piperazin-1-yl)-3-((2-ethoxypyrimidin-5-yl)amino)phenyl)pentanoic acid] reads over 50 nM; that for `COCC(CC(=O)O)c1ccc(N(CC2CC2)C2CCOCC2)c(Nc2ccc(C(N)=O)nc2)c1` (single isomer, unassigned) [Example 693, 3-(3-((6-carbamoylpyridin-3-yl)amino)-4-((cyclopropylmethyl) (tetrahydro-2H-pyran-4-yl)amino)phenyl)-4-methoxybutanoic acid], over 50 nM. `CC(CC(=O)O)c1ccc(N2C[C@@H](C)O[C@@H](C)C2)c(NC(=O)Nc2ccc(Cl)cc2F)c1` (single isomer, unassigned) [Example 749 Enantiomer 1] displayed an IC50 of over 50 nM. To `CC(CC(=O)O)c1ccc(N2C[C@@H](C)O[C@@H](C)C2)c(NC(=O)Nc2ccc(C#N)cc2)c1` (single isomer, unassigned) [Example 750] belongs over 50 nM.

Consider `Cc1ccc(NC(=O)Nc2cc(C(C)CC(=O)O)ccc2N2C[C@@H](C)O[C@@H](C)C2)cc1` (single isomer, unassigned) [Example 751], for which the IC50 was over 50 nM. `CCN(c1cc(F)c([C@@H](COC)CC(=O)O)cc1Nc1ccc(C#N)cc1)C1CCOCC1` (single isomer, unassigned) [Example 843, 3-(5-((4-Cyanophenyl)amino)-4-(ethyl(tetrahydro-2H-pyran-4-yl)amino)-2-fluorophenyl)-4-methoxybutanoic acid]: the IC50 was under 5 nM.

With `CCN(c1cc(F)c(C(COC)CC(=O)O)cc1Nc1ccc(C#N)c(F)c1)C1CCOCC1` (single isomer, unassigned) [Example 846, 3-(5-((4-cyano-3-fluorophenyl)amino)-4-(ethyl (tetrahydro-2H-pyran-4-yl)amino)-2-fluorophenyl)-4-methoxybutanoic acid], the IC50 was under 5 nM.

`CCN(c1cc(F)c(C(COC)CC(=O)O)cc1Nc1ccc(C#N)cc1F)C1CCOCC1` (single isomer, unassigned) [Example 847, 3-(5-((4-cyano-2-fluorophenyl)amino)-4-(ethyl (tetrahydro-2H-pyran-4-yl)amino)-2-fluorophenyl)-4-methoxybutanoic acid] showed an IC50 of under 5 nM. `CCN(c1cc(F)c([C@@H](COC)CC(=O)O)cc1NC(=O)Nc1ccc(Cl)cc1F)C1CCOCC1` (single isomer, unassigned) [Example 848, 3-(5-(3-(4-Chloro-2-fluorophenyl)ureido)-4-(ethyl(tetrahydro-2H-pyran-4-yl)amino)-2-fluorophenyl)-4-methoxybutanoic acid] showed an IC50 of under 5 nM. To `CCN(c1cc(F)c([C@@H](COC)CC(=O)O)cc1NC(=O)Nc1ccc(C#N)cc1)C1CCOCC1` (single isomer, unassigned) [Example 849, 3-(5-(3-(4-Cyanophenyl)ureido)-4-(ethyl(tetrahydro-2H-pyran-4-yl)amino)-2-fluorophenyl)-4-methoxybutanoic acid] belongs over 50 nM; to `CCN(c1cc(F)c([C@H](COC)CC(=O)O)cc1Nc1ccc(C#N)cc1)C1CCOCC1` (single isomer, unassigned) [Example 850, 3-(5-((4-Cyanophenyl)amino)-4-(ethyl(tetrahydro-2H-pyran-4-yl)amino)-2-fluorophenyl)-4-methoxybutanoic acid], under 5 nM; to `CCN(c1cc(F)c(C(COC)CC(=O)O)cc1NC(=O)Nc1ccc(Cl)cc1F)C1CCOCC1` (single isomer, unassigned) [Example 855, 3-(5-(3-(4-Chloro-2-fluorophenyl)ureido)-4-(ethyl(tetrahydro-2H-pyran-4-yl)amino)-2-fluorophenyl)-4-methoxybutanoic acid], under 50 nM. The result for `CCC(CC(=O)O)c1cc(Nc2ccc(Cl)cc2)c(N(CC)C2CCOCC2)cc1F` (single isomer, unassigned) [Example 856, 3-(5-((4-Chlorophenyl)amino)-4-(ethyl(tetrahydro-2H-pyran-4-yl)amino)-2-fluorophenyl)pentanoic acid] reads under 5 nM; that for `CCC(CC(=O)O)c1cc(Nc2ccc(C#N)cn2)c(N(CC)C2CCOCC2)cc1F` (single isomer, unassigned) [Example 857, 3-(5-((5-cyanopyridin-2-yl)amino)-4-(ethyl(tetra-hydro-2H-pyran-4-yl)amino)-2-fluorophenyl) pentanoic acid], under 50 nM; that for `CCC(CC(=O)O)c1cc(Nc2cnc(OCC3CC3)nc2)c(N(CC)C2CCOCC2)cc1F` (single isomer, unassigned) [Example 858, 3-(5-((2-(cyclopropyl-methoxy)pyrimidin-5-yl)amino)-4-(ethyl(tetra-hydro-2H-pyran-4-yl)amino)-2-fluorophenyl) pentanoic acid], under 5 nM. To `CCC(CC(=O)O)c1cc(Nc2cnc(OC)nc2)c(N(CC)C2CCOCC2)cc1F` (single isomer, unassigned) [Example 859, 3-(4-(ethyl (tetrahydro-2H-pyran-4-yl)amino)-2-fluoro-5-((2-methoxy-pyrimidin-5-yl)amino)phenyl) pentanoic acid] belongs under 5 nM. In the case of `CCOc1ncc(Nc2cc(C(CC)CC(=O)O)c(F)cc2N(CC)C2CCOCC2)cn1` (single isomer, unassigned) [Example 860, 3-(5-((2-ethoxy-pyrimidin-5-yl)amino)-4-(ethyl(tetra-hydro-2H-pyran-4-yl)amino)-2-fluorophenyl) pentanoic acid], the IC50 was under 5 nM. To `CCC(CC(=O)O)c1cc(Nc2ccc(C#N)cn2)c(N(CC)C2CCOCC2)cc1F` (single isomer, unassigned) [Example 862, 3-(5-((5-cyanopyridin-2-yl)amino)-4-(ethyl (tetrahydro-2H-pyran-4-yl)amino)-2-fluorophenyl) pentanoic acid] belongs under 5 nM; to `CCC(CC(=O)O)c1ccc(N(C)C2CCOCC2)c(Nc2ccc(C#N)cc2)c1` (single isomer, unassigned) [Example 866, 3-(3-((4-Cyanophenyl)amino)-4-(methyl(tetrahydro-2H-pyran-4-yl)amino)phenyl)pentanoic acid], under 50 nM. In the case of `CCC(CC(=O)O)c1ccc(N(C)C2CCOCC2)c(Nc2ccc(Cl)cc2)c1` (single isomer, unassigned) [Example 867, 3-(3-((4-Chlorophenyl)amino)-4-(methyl(tetrahydro-2H-pyran-4-yl)amino)phenyl)pentanoic acid], the IC50 is under 5 nM.

As for `CCC(CC(=O)O)c1ccc(N(C)C2CCOCC2)c(Nc2cnc(OC)nc2)c1` (single isomer, unassigned) [Example 868, 3-(3-((2-methoxy-pyrimidin-5-yl)amino)-4-(methyl (tetrahydro-2H-pyran-4-yl)amino)phenyl) pentanoic acid], the IC50 was under 50 nM.
